Reference: US8796292B2, “Selective antibacterials for clostridium difficile infections” (GLSynthesis Inc., priority 2009, dated 2014)
Converted amounts (≈) assume the structure as drawn. Where two headings read alike, the source gives them in different places. Values belong to the compound of their own block, whether it stands above or below them.

Key:
Test in all cases: agar dilution MIC assay of anaerobic bacteria
[1] = system: L. casei; assay type: cell-based, Lactobacillus casei; details: Lacticaseibacillus casei
Description: (§1) Each compound was assayed against a panel of anaerobic bacteria in culture, consisting of Gram-positive organisms, such as Lactobacilli, Bifidobacteria, Clostridium spp., and Gram-negative bacteria, such as […] fragilis spp., according to guidelines of the Clinical and Laboratory Standards Institute (CLSI document M11-A7, CLSI, Wayne, Pa., 2007). […] One tenth mL of diluted bacteria containing 500-1000 colony-forming units (CFU) was plated and spread, and the plates incubated at 37° C. for 24-48 hours. MIC (minimum inhibitory concentration) is equivalent to the lowest concentration in μg/ml at which growth, i.e., colony formation, is not observed. […] Bacteria were assayed using a reference agar dilution method. Drug dilutions and drug-supplemented agar plates were prepared manually. The test organisms were maintained frozen at −80° C. The isolates were sub-cultured on Supplemented Brucella Agar (SBA) plates in a Bactron II anaerobic chamber and incubated for 48 hours at 35-36° C. in the Bactron II anaerobe chamber. Following inoculation, the drug-supplemented plates were incubated at 35° C. for 48 hours in the anaerobic environment (5% hydrogen, 5% carbon dioxide, 90% nitrogen) of the Bactron II. The MIC in μg/ml was read per Clinical and Laboratory Standards Institute guidelines.

[2] = system: Bi. longum; assay type: cell-based, Bifidobacterium longum; details: Bifidobacterium longum, read-out: MIC
Description: as §1

[3] = system: E. lentum; assay type: cell-based, Eubacterium lentum; details: Eggerthella lenta, read-out: MIC
Description: as §1

[4] = system: Bi. brevi; assay type: cell-based, Bifidobacterium brevi
Description: as §1

[5] = system: C. difficile; assay type: cell-based, Clostridium difficile; details: Clostridioides difficile, read-out: MIC
Description: as §1

[6] = system: Ba. fragilis; assay type: cell-based; details: Bacteroides fragilis
Description: as §1

[7] = system: L. acidophilus; assay type: cell-based; details: Lactobacillus acidophilus
Description: as §1

[8] = Strain no. 1722 (ATCC strain), Table 3
[9] = Bi. Longum, Strain no. 3968 (ATCC strain), Table 3
[10] = Eu. Lentum, Strain no. 1274 (ATCC strain), Table 3
[11] = Bifidobacterium breve, Bi. Breve, Strain no. 3967 (ATCC strain), Table 3
[12] = C. diff., Strain no. 3580, Table 3
[13] = C. diff., Strain no. 3581, Table 3
[14] = C. diff., Strain no. 3582, Table 3
[15] = C. diff., Strain no. 3584, Table 3
[16] = C. diff., Strain no. 3585, Table 3
[17] = C. diff., Strain no. 3586, Table 3
[18] = C. diff., Strain no. 3587, Table 3
[19] = C. diff., Strain no. 3588, Table 3
[20] = C. diff., Strain no. 3589, Table 3
[21] = C. diff., Strain no. 4381 (ATCC strain), Table 3
[22] = B. fragilis, Strain no. 0123 (ATCC strain), Gram-negative (control), Table 3

MIC ([1]; Micromyx Number 1722, Table 1): 32 µg/mL (≈ 101 µM) | MIC ([2]; Bi. longum, Micromyx Number 3968, Table 1): > 32 µg/mL | MIC ([3]; E. lentum, Micromyx Number 1274, Table 1): > 32 µg/mL | MIC ([4]; Bifidobacterium, Bi. brevi, Micromyx Number 3967, Table 1): > 32 µg/mL | MIC ([5]; C. difficile, Micromyx Number 1209, Table 1): 16 µg/mL (≈ 50.4 µM) | MIC ([5]; C. difficile, Micromyx Number 3579, Table 1): 16 µg/mL (≈ 50.4 µM) | MIC ([5]; C. difficile, Micromyx Number 3580, Table 1): 4 µg/mL (≈ 12.6 µM) | MIC ([5]; C. difficile, Micromyx Number 3581, Table 1): 8 µg/mL (≈ 25.2 µM) | MIC ([5]; C. difficile, Micromyx Number 3582, Table 1): 16 µg/mL (≈ 50.4 µM) | MIC ([5]; C. difficile, Micromyx Number 3584, Table 1): 4 µg/mL (≈ 12.6 µM) | MIC ([5]; C. difficile, Micromyx Number 3585, Table 1): 16 µg/mL (≈ 50.4 µM) | MIC ([5]; C. difficile, Micromyx Number 3586, Table 1): 4 µg/mL (≈ 12.6 µM) | MIC ([5]; C. difficile, Micromyx Number 3587, Table 1): 8 µg/mL (≈ 25.2 µM) | MIC ([5]; C. difficile, Micromyx Number 3588, Table 1): 1 µg/mL (≈ 3.15 µM) | MIC ([5]; C. difficile, Micromyx Number 3589, Table 1): 16 µg/mL (≈ 50.4 µM) | MIC ([5]; C. difficile, Micromyx Number 3590, Table 1): 8 µg/mL (≈ 25.2 µM) | MIC ([5]; C. difficile, Micromyx Number 3591, Table 1): 8 µg/mL (≈ 25.2 µM) | MIC ([5]; C. difficile, Micromyx Number 3593, Table 1): 16 µg/mL (≈ 50.4 µM) | MIC ([5]; C. difficile, Micromyx Number 3594, Table 1): 4 µg/mL (≈ 12.6 µM) | MIC ([5]; C. difficile, Micromyx Number 3595, Table 1): 4 µg/mL (≈ 12.6 µM) | MIC ([5]; C. difficile, Micromyx Number 4381 (ATCC strain), Table 1): 4 µg/mL (≈ 12.6 µM) | MIC ([6]; Ba. fragilis, Micromyx Number 0123 (ATCC strain), Gram negative, Table 1): > 32 µg/mL | MIC ([7]; Micromyx Number 0681, Table 1): 32 µg/mL (≈ 101 µM)
Compound: CCc1cc(Nc2cc(=O)n(CCCCO)c(=O)[nH]2)ccc1C [Compound 179E]

MIC [1, 8]: > 32 µg/mL | MIC [2, 9]: > 32 µg/mL | MIC [3, 10]: > 32 µg/mL | MIC [4, 11]: > 32 µg/mL | MIC [5, 12]: 32 µg/mL | MIC [5, 13]: 8 µg/mL | MIC [5, 14]: 32 µg/mL | MIC [5, 15]: 8 µg/mL | MIC [5, 16]: 16 µg/mL | MIC [5, 17]: 8 µg/mL | MIC [5, 18]: 16 µg/mL | MIC [5, 19]: 2 µg/mL | MIC [5, 20]: 16 µg/mL | MIC [5, 21]: 8 µg/mL | MIC [6, 22]: > 32 µg/mL | MIC ([7]; Strain no. 0681, Table 3): 16 µg/mL
Compound: Cl.O=c1cc(NCc2ccc(Cl)c(Cl)c2)[nH]c(=O)n1CCOCCN1CCOCC1 [Compound 240D]

MIC [1, 8]: > 32 µg/mL | MIC [2, 9]: > 32 µg/mL | MIC [3, 10]: > 32 µg/mL | MIC [4, 11]: > 32 µg/mL | MIC [5, 12]: 16 µg/mL (≈ 34.2 µM) | MIC [5, 13]: 8 µg/mL (≈ 17.1 µM) | MIC [5, 14]: 16 µg/mL (≈ 34.2 µM) | MIC [5, 15]: 4 µg/mL (≈ 8.56 µM) | MIC [5, 16]: 16 µg/mL (≈ 34.2 µM) | MIC [5, 17]: 4 µg/mL (≈ 8.56 µM) | MIC [5, 18]: 8 µg/mL (≈ 17.1 µM) | MIC [5, 19]: 1 µg/mL (≈ 2.14 µM) | MIC [5, 20]: 16 µg/mL (≈ 34.2 µM) | MIC [5, 21]: 8 µg/mL (≈ 17.1 µM) | MIC [6, 22]: > 32 µg/mL | MIC ([7]; Strain no. 0681, Table 3): 16 µg/mL (≈ 34.2 µM)
Compound: O=c1[nH]c(NCc2ccc(Cl)c(Cl)c2)nc2ncn(CCOCCN3CCOCC3)c12 [Compound 360A]
